In brackets after ≈: the same amount, converted by molar mass.
Experiments:
[1] = biological target: T1, Activin receptor type-1-like (Homo sapiens, UniProt P37023); assay: Inhibition of ALK1 (unknown origin)
[2] = biological target: T1, Activin receptor type-1-like; assay: Inhibition of ALK1 in HMEC-1 assessed as translocation of pSMAD1/5
[3] = Lipophilicity, log D of the compound at pH 7.4; type: physicochemical; details: buffer
[4] = Solubility of the compound; type: physicochemical
[5] = biological target: Proto-oncogene tyrosine-protein kinase Src (Homo sapiens) (UniProt P12931); assay: Inhibition of Src (unknown origin) by HTRF assay
[6] = biological target: TGF-beta receptor type-1 (Homo sapiens) (UniProt P36897); assay: Inhibition of ALK5 in recombinant human MDA-MB-468 cells assessed as translocation of GFP-smad2; type: cell-based
[7] = biological target: T1, Activin receptor type-1-like; assay: Inhibition of human recombinant GST-tagged ALK1 expressed in baculovirus by FRET assay
[8] = biological target: Activin receptor type-1 (Homo sapiens, UniProt Q04771); assay: Inhibition of human recombinant GST-tagged ALK2 (amino acid 147 end) by FRET assay
[9] = biological target: Bone morphogenetic protein receptor type-1A (Homo sapiens, UniProt P36894); assay: Inhibition of human recombinant N-terminal GST-tagged ALK3 (187 to 432 residues) expressed in insect cells by FRET assay
[10] = biological target: Activin receptor type-1B (Homo sapiens, UniProt P36896); assay: Inhibition of human recombinant GST-tagged ALK4 expressed in baculovirus by FRET assay
[11] = biological target: TGF-beta receptor type-1 (Homo sapiens, UniProt P36897); assay: Inhibition of full length human N-terminal GST-tagged ALK5 expressed in baculovirus by FRET assay
[12] = biological target: Bone morphogenetic protein receptor type-1B (Homo sapiens, UniProt O00238); assay: Inhibition of human recombinant N-terminal GST-tagged ALK6 (149 amino acids end) expressed in baculovirus infected Sf9 insect cells by FRET assay
[13] = AUC in Han Wistar rat at 5 umol/kg; type: ADME, organism-based; details: in vivo
[14] = Clearance in Han Wistar rat; type: ADME, organism-based; details: in vivo
[15] = Oral bioavailability in Han Wistar rat; type: ADME, organism-based; details: in vivo
[16] = Ratio of free drug level in nude mouse at 5 umol/kg administered as single dose after 24 hrs to IC50 for ALK1 in HMEC-1; type: ADME; details: in vivo
[17] = tested on: Mus musculus; assay: Free Cmax in nude mouse at 50 mg/kg, po administered as single dose after 24 hrs; type: ADME, organism-based; details: in vivo
[18] = tested on: Mus musculus; assay: Free drug concentration in nude mouse at 50 mg/kg, po administered as single dose after 24 hrs; type: ADME, organism-based; details: in vivo
[19] = Fraction unbound in mouse plasma; type: ADME, cell-free
[20] = biological target: Ephrin type-A receptor 2 (Homo sapiens) (UniProt P29317); assay: Inhibition of human recombinant EPHA2 receptor (591 to 976 residues) expressed in insect Sf21 cells at 1 uM using poly(Glu4-Tyr1) as substrate after 30 mins
[21] = biological target: Tyrosine-protein kinase Yes (Homo sapiens) (UniProt P07947); assay: Inhibition of human recombinant full-length YES1 expressed in insect Sf21 cells at 1 uM using poly(Glu4-Tyr1) as substrate after 30 mins
[22] = biological target: Proto-oncogene tyrosine-protein kinase Src (Homo sapiens) (UniProt P12931); assay: Inhibition of human recombinant full-length Src expressed in insect Sf21 cells at 1 uM using KVEKIGEGTYGVVYK as substrate after 30 mins
[23] = biological target: MAP kinase-interacting serine/threonine-protein kinase 1 (Homo sapiens) (UniProt Q9BUB5); assay: Inhibition of human recombinant full-length MNK1 expressed in Escherichia coli at 1 uM using eIF4E as substrate after 30 mins
[24] = biological target: Tyrosine-protein kinase BTK (Homo sapiens) (UniProt Q06187); assay: Inhibition of BTK (unknown origin) at 1 uM
[25] = biological target: Mitogen-activated protein kinase 8 (Homo sapiens) (UniProt P45983); assay: Inhibition of JNK1 (unknown origin) at 1 uM after 30 mins
[26] = biological target: Cyclin-dependent kinase 2 (Homo sapiens) (UniProt P24941); assay: Inhibition of human recombinant full-length CDK2 expressed in Escherichia coli at 1 uM after 30 mins
[27] = biological target: Tyrosine-protein kinase CSK (Homo sapiens) (UniProt P41240); assay: Inhibition of human recombinant full-length CSK at 1 uM after 30 mins
[28] = biological target: Glycogen synthase kinase-3 beta (Homo sapiens) (UniProt P49841); assay: Inhibition of human recombinant full-length GSK3beta at 1 uM after 30 mins
[29] = biological target: Fibroblast growth factor receptor 1 (Homo sapiens) (UniProt P11362); assay: Inhibition of human recombinant FGFR1 (400 to 820 residues) expressed in insect Sf21 cells at 1 uM using poly(Glu4-Tyr1) as substrate after 30 mins
[30] = biological target: Mitogen-activated protein kinase 11 (Homo sapiens) (UniProt Q15759); assay: Inhibition of human recombinant full-length p38beta at 1 uM after 30 mins
[31] = biological target: Calcium/calmodulin-dependent protein kinase kinase 2 (Homo sapiens) (UniProt Q96RR4); assay: Inhibition of human recombinant full-length CAMKKbeta expressed in Escherichia coli at 1 uM using AKPKGNKDYHLQTCCGSLAYRRR as substrate
[32] = biological target: Serine/threonine-protein kinase TBK1 (Homo sapiens) (UniProt Q9UHD2); assay: Inhibition of human recombinant full-length TBK1 expressed in insect Sf21 cells at 1 uM using AKPKGNKDYHLQTCCGSLAYRRR as substrate
[33] = biological target: Vascular endothelial growth factor receptor 1 (Homo sapiens) (UniProt P17948); assay: Inhibition of human recombinant full-length FLT1 at 1 uM after 30 mins
[34] = biological target: Mitogen-activated protein kinase 13 (Homo sapiens) (UniProt O15264); assay: Inhibition of MAPK13 (unknown origin) at 1 uM
[35] = biological target: Inhibitor of nuclear factor kappa-B kinase subunit beta (Homo sapiens) (UniProt O14920); assay: Inhibition of human recombinant full-length IKKbeta expressed in insect Sf21 cells at 1 uM using LDDRHDSGLDSMKDEEY as substrate after 30 mins
[36] = biological target: Maternal embryonic leucine zipper kinase (Homo sapiens) (UniProt Q14680); assay: Inhibition of human recombinant full-length MELK expressed in Escherichia coli at 1 uM using KKLNRTLSFAEPG as substrate after 30 mins

T1 sequence (P37023 whole entry): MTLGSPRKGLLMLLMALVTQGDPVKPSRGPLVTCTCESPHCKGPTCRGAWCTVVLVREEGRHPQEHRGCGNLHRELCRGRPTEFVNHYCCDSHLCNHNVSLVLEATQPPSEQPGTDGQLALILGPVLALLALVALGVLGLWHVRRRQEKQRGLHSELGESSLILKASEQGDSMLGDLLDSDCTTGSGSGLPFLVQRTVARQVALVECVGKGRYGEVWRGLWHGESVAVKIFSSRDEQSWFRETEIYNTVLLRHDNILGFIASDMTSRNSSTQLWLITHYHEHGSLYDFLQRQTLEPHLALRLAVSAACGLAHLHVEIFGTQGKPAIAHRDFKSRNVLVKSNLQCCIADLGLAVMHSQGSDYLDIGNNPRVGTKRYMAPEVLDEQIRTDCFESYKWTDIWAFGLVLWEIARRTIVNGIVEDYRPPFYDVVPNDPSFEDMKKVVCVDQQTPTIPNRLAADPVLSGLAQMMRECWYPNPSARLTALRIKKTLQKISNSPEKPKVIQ
Proto-oncogene tyrosine-protein kinase Src (Homo sapiens), sequence (P12931 2-536 limits assumed): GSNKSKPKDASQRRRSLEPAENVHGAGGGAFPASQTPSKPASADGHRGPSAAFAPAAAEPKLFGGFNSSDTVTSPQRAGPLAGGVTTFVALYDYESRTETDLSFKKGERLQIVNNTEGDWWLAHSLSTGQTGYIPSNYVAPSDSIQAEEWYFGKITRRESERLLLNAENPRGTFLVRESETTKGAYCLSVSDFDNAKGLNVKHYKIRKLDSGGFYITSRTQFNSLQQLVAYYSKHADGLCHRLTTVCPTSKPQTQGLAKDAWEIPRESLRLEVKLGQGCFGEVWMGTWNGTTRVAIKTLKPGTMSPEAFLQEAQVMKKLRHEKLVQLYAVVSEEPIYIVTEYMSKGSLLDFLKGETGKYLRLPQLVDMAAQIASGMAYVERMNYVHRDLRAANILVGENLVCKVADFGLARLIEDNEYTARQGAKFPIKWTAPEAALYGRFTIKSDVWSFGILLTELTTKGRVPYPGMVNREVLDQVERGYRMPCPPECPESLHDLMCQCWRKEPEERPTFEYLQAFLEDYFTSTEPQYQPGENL
TGF-beta receptor type-1, sequence (P36897 whole entry): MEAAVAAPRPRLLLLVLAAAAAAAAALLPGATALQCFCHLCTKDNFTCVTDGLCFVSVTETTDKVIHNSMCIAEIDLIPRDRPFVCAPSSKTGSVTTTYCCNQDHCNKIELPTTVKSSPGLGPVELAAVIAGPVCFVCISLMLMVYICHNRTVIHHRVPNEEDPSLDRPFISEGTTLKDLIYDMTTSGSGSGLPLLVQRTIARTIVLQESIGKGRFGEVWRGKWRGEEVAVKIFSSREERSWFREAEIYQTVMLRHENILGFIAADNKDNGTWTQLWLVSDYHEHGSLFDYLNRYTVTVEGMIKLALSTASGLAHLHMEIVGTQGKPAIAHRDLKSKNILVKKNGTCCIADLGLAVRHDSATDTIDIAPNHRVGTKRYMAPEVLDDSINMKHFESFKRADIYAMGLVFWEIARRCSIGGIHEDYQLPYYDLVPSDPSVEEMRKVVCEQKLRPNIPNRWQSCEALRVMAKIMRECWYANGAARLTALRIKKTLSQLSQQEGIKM
TGF-beta receptor type-1 (Homo sapiens), sequence (P36897 whole entry): as above
Activin receptor type-1B, sequence (P36896 whole entry): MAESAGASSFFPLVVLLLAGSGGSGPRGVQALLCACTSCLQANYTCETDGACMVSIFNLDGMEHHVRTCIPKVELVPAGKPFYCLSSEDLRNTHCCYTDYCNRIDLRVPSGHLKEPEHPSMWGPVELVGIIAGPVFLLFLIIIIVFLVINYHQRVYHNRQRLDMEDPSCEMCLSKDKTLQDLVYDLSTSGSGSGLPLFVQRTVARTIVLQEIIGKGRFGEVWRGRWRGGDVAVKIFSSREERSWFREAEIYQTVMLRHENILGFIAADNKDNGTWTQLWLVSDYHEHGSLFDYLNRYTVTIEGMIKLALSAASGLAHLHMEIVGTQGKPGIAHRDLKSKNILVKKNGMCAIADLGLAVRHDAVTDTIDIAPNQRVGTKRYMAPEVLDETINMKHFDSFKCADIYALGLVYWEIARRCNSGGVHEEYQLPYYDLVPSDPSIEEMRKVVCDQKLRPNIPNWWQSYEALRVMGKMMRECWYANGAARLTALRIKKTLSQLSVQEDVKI
Mitogen-activated protein kinase 13 (Homo sapiens), sequence (O15264 whole entry): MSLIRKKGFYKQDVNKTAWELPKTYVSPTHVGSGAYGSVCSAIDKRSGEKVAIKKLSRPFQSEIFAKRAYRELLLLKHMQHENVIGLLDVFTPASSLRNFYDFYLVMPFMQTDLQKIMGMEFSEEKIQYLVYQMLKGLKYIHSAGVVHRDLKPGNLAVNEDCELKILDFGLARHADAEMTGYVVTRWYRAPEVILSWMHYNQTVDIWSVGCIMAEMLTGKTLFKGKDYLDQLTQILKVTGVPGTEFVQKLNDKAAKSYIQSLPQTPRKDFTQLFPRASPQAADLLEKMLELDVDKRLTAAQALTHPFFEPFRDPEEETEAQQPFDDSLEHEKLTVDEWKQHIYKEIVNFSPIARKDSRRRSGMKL
Tyrosine-protein kinase BTK (Homo sapiens), sequence (Q06187 whole entry): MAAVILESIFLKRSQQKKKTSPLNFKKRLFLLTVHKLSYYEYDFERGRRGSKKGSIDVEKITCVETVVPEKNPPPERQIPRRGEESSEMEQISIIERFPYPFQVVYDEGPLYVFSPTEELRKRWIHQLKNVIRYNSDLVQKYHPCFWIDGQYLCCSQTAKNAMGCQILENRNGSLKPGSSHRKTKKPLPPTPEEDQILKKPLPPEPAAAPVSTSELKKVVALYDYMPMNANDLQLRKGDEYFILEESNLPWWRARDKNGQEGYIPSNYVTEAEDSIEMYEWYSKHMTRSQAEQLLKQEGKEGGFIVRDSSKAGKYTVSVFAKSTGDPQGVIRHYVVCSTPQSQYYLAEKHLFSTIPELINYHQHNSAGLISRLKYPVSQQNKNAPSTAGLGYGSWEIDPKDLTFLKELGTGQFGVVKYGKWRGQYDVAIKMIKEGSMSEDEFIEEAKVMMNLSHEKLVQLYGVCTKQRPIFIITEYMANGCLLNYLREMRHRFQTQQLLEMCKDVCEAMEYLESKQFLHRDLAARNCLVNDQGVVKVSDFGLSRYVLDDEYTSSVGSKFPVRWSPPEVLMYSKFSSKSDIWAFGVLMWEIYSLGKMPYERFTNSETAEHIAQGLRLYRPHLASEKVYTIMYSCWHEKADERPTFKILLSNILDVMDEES
Activin receptor type-1, sequence (Q04771 whole entry, the tested form may be a part): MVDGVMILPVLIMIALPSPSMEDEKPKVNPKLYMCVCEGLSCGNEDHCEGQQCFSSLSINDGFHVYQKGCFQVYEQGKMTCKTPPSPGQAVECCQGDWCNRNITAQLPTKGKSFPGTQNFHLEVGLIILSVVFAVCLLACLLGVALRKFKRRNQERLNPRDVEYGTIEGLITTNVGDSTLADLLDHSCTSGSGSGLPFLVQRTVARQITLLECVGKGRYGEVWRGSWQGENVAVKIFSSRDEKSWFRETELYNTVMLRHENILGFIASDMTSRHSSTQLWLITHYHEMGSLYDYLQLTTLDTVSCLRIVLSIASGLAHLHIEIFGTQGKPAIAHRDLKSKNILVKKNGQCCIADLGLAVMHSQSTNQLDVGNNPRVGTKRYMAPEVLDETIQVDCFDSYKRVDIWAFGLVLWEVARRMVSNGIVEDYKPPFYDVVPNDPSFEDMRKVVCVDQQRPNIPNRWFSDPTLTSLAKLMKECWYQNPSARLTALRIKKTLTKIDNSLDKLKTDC
Inhibitor of nuclear factor kappa-B kinase subunit beta (Homo sapiens), sequence (O14920 whole entry): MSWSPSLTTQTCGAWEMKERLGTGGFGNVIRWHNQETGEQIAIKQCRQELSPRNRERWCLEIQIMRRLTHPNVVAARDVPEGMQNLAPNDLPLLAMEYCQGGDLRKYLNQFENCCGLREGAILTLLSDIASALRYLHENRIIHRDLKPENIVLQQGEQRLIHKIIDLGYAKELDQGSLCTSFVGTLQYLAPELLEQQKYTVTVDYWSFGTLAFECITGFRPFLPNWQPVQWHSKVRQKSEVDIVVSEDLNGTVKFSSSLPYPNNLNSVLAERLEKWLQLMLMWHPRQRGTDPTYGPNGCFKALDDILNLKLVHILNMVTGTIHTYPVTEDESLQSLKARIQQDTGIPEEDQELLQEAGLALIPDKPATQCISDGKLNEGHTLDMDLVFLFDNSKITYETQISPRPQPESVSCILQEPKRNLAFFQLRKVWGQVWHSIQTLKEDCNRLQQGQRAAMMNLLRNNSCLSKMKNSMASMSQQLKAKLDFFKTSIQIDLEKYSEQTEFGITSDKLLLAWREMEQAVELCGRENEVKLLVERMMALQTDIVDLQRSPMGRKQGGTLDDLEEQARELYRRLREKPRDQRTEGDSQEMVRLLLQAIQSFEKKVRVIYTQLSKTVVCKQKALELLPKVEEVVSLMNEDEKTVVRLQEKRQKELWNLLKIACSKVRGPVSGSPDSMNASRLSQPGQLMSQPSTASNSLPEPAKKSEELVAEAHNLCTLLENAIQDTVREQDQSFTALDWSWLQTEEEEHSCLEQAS
Glycogen synthase kinase-3 beta (Homo sapiens), sequence (P49841 whole entry, looked up, the tested form may be a part): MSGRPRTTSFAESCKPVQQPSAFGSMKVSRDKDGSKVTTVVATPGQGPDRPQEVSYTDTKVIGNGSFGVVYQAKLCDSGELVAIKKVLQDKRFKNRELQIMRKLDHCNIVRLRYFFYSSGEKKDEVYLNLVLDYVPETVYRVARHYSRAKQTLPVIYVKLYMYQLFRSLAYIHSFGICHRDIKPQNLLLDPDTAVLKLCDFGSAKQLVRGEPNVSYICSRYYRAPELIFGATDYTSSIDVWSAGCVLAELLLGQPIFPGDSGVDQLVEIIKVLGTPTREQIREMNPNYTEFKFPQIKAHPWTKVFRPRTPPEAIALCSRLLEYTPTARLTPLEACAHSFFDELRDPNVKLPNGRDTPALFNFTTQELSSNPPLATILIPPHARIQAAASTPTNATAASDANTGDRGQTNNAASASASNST

- IC50 [1]: 4 nM
- IC50 [2]: 45 nM
- logD [3]: 2.7
- solubility [4]: 63 µM (≈ 21 µg/mL)
- INH [5]: 4.4 µM
- INH [6]: 0.12 µM
- IC50 [7]: 1.1 nM
- IC50 [8]: 1.2 nM
- IC50 [9]: 2.4 nM
- IC50 [10]: 31 nM
- IC50 [11]: 1.9 nM
- IC50 [12]: 1300 nM
- AUC [13]: 3.8 µM·h
- clearance [14]: 8.4 mL/min/kg
- bioavailability [15]: 38%
- Ratio [16]: > 10
- fCmax [17]: 31.7 µM
- Drug uptake(free) [18]: 0.37 µM
- fraction unbound [19]: 0.27
- inhibition [20]: > 50%
- inhibition [21]: > 50%
- inhibition [22]: < 80%
- inhibition [23]: < 80%
- inhibition [24]: < 80%
- inhibition [25]: < 80%
- inhibition [26]: < 80%
- inhibition [27]: < 80%
- inhibition [28]: < 80%
- inhibition [29]: < 80%
- inhibition [30]: < 80%
- inhibition [31]: < 80%
- inhibition [32]: < 80%
- inhibition [33]: < 80%
- inhibition [34]: < 80%
- inhibition [35]: < 80%
- inhibition [36]: < 80%
Structure (SMILES): O=C(Nc1cc(Nc2c(Cl)cnc3c2OCO3)ccn1)C1CC1

Reference: ChEMBL document CHEMBL3817795, “Identification and optimisation of a series of N-(4-anilino-2-pyridyl)acetamide activin receptor-like kinase 1 (ALK1) inhibitors” (Medchemcomm, 2016)
